Experimental data: US20060239958A1, “Biodegradable and pressure-sensitive material for medical use” (priority 2003, published 2006)

System: L929 cells
Assay: Cytotoxicity test using L929 cells
Assay type: cell-based
Protocol: FIG. 1 is a graph showing the result of a cytotoxicity test on three compounds related to the synthesis of a citric acid derivative (CAD).
A cytotoxicity test was carried out in the following manner. As one example of the low-molecular-weight derivative serving as the hardening component, a biological low-molecular-weight derivative (CAD) was synthesized by modifying three carboxyl groups of a citric acid with N-hydroxysuccinimide (HOSu), and a cytotoxicity test was performed using L929 cells and the synthesized CAD. The number of cells in a sample added with no CAD was defined as 100%.

| SMILES | cytotoxicity (number of cells; sample added with no CAD defined as 100%) |
| --- | --- |
| O=C(CC(O)(CC(=O)ON1C(=O)CCC1=O)C(=O)ON1C(=O)CCC1=O)ON1C(=O)CCC1=O [CAD] | extremely low toxicity |
| O=C1CCC(=O)N1O [HOSu, N-hydroxysuccinimide] | extremely low toxicity |
| O=C(O)CC(O)(CC(=O)O)C(=O)O [citric acid] | extremely low toxicity |
